Measured values taken from patent US10709735B2, “Immunotherapy against neuronal and brain tumors” (IMMATICS BIOTECHNOLOGIES GMBH, priority 2007, dated 2020).

Test system: CD8+ T cells
Assay: In vitro immunogenicity: priming of CD8+ T cells with peptide-MHC/anti-CD28 coated beads (aAPC), tetramer readout
Assay type: cell-based, human
Conditions: CD8+ T cells of healthy HLA-A*02+ donors, three stimulation cycles with high density beads; positive well: at least 1% specific tetramer+ among CD8+ T cells and at least 10x median of negative controls
Experimental: To perform in vitro stimulations by artificial antigen presenting cells (aAPC) loaded with peptide-MHC complex (pMHC) and anti-CD28 antibody, PBMCs (peripheral blood mononuclear cells) were isolated from fresh HLA-A*02+ buffy coats by using standard density gradient separation medium (PAA, Cölbe, Germany). Buffy coats were obtained from the Katharinenhospital Stuttgart. Isolated PBMCs were incubated overnight in T-cell medium (TCM) for human in vitro priming consisting of RPMI-Glutamax (Invitrogen, Karlsruhe, Germany) supplemented with 10% heat inactivated human AB serum (PAA, Cölbe, Germany), 100 U/ml Penicillin/100 μg/ml Streptomycin (Cambrex, Verviers, Belgium), 1 mM sodium pyruvate (CC Pro, Neustadt, Germany) and 20 μg/ml Gentamycin (Cambrex). CD8+ lymphocytes were isolated using the CD8+ MACS positive selection kit (Miltenyi, Bergisch Gladbach, Germany) according to the manufacturer's instructions. Obtained CD8+ T cells were incubated until use in TCM supplemented with 2.5 ng/ml IL-7 (PromoCell, Heidelberg, Germany) and 10 U/ml IL-2 (Chiron, Munich, Germany). Generation of pMHC/anti-CD28 coated beads, T-cell stimulations and readout was performed as described before (Walter et al., 2003) with minor modifications. Briefly, biotinylated recombinant HLA-A*0201 molecules lacking the transmembrane domain and biotinylated at the carboxy terminus of the heavy chain were produced following a method described by Altman et al., 1996). The purified costimulatory mouse IgG2a anti human CD28 Ab 9.3 (Jung et al., 1987) was chemically biotinylated using Sulfo-N-hydroxysuccinimidobiotin as recommended by the manufacturer (Perbio, Bonn, Germany). 5.60 μm large streptavidin coated polystyrene particles beads were used (Bangs Laboratories, Illinois/USA). pMHC was used as positive and negative controls were A*0201/MLA-001 (peptide […] from modified Melan-A/MART-1) and A*0201/DDX5-001 ([…] from DDX5), respectively.
800,000 beads/200 μl were coated in 96-well plates in the presence of 600 ng biotin anti-CD28 plus 200 ng relevant biotin-pMHC (high density beads) or 2 ng relevant plus 200 ng irrelevant (pMHC library) MHC (low density beads). Stimulations were initiated in 96-well plates by conincubating 1×10^6 CD8+ T cells with 2×10^5 washed coated beads in 200 μl TCM supplemented with 5 ng/ml IL-12 (PromoCell) for 3-4 days at 37° C. Half of the medium was then exchanged by fresh TCM supplemented with 80 U/ml IL-2 and incubating was continued for 3-4 days at 37° C. This stimulation cycle was performed for a total of three times. Finally, tetrameric analyses were performed with fluorescent MHC tetramers (produced as described by (Altman et al., 1996)) plus antibody CD8-FITC clone SK1 (BD, Heidelberg, Germany) on a FACSCalibur or a LSR II flow cytometer (BD). Peptide specific cells were calculated as percentage of total CD8+ T cells. Evaluation of tetrameric analysis was performed using the software FCS Express (De Novo Software). In vitro priming of specific tetramer+ CD8+ lymphocytes was detected by appropriate gating and by comparing to negative control stimulations.
Results shown have been obtained by stimulation of CD8+ cells with high density beads. As different human serum lots may highly affect the immunogenicity results, only assays in which one and the same serum lot was used, were evaluated together.

Sequence	Immunogenicity detected
FLLPDTDGL (listed as Homo sapiens) [PTP-004, PTPRZ1-derived tumor associated peptide, HLA A*02]	Yes
KVFAGIPTV (listed as Homo sapiens) [PTP-005, PTPRZ1-derived tumor associated peptide, HLA A*02]	Yes
SLWAGVVVL (listed as Homo sapiens) [CHI-001, CHI3L2-derived tumor associated peptide, HLA A*02]	Yes
FLYKVILSL (listed as Homo sapiens) [PTP-002, PTPRZ1-derived tumor associated peptide, HLA A*02]	Yes
ALTTLMHQL (listed as Homo sapiens) [PTP-001, PTPRZ1-derived tumor associated peptide, HLA A*0205]	Yes
AIIDGVESV (listed as Homo sapiens) [PTP-003, PTPRZ1-derived tumor associated peptide, HLA A*02]	Yes
